# In US5023239A, “Sialosyl cholesterol, process for producing the same, and neuropathy remedy comprising the same” (MECT Corporation, priority 1986, dated 1991):
# Columns and labels:
# [1] = system: Neuroblastoma Cell, Neuro 2a Strain; test: Effect on proliferation / neurite propagation of neuroblastoma cell, Neuro 2a strain; assay type: cell-based, mouse; conditions: for activity (in words): 24 hours cultivation; for minimal effective concentration: 48 hours after addition; for growth / propagation of neurites (in words): Neuro 2a culture; for activity relative to GMl (times as high): vs GMl; for activity relative to GMl (times as high) / activity relative to GQlb (times as high): from minimal effective concentrations at 48 hours, molecular weights considered; for activity relative to GQlb (times as high): vs GQlb
# Description: Experiments for confirming the activity of the present compound for promoting propagation of neurites will be explained below.
# Effect On Proliferation of Neuroblastoma Cell, Neuro 2a Strain
# Neuro 2a was floated on culture medium consisting of 90% of Dulbecco's Modified Eagle's Midium, and 10% of fetal calf serum (FCS), and containing 100 units/ml of penicillin G and 100 micro g/ml of streptomycin sulfate, and then cultivated at 37° C. in a carbon dioxide incubator containing air into which 5% of carbon dioxide was incorporated. The vessel as used was a polystyrene tray having a diameter of 60 mm. 1 to 2×10^4 of the neuroblastoma cells were implanted in each tray and cultivated for 48 hours. The FCS-containing culture was removed from the resultant cell culture. […] When 24 and 48 hours had passed after the addition of these medicines, the number of the living cells increased in the culture, the number of the neurites increased, and the length of the neurites were measured. The experiment was conducted on three trays with respect to each concentration. The resultant data were expressed by average value+standard error (S.E).
# ddy male mice = test: Acute toxicity test, intravenous injection; assay type: in vivo, mouse; conditions: ddy male mice of 45 weeks age
# Description: Acute toxicity test was conducted by intravenously injecting the compounds into ddy male mice of 45 weeks age.
SMILES,activity (in words) ([1]; 10 ng/ml),"Length of neurite ± S.E. ([1]; 24 hrs, 10 ng/ml) [μm/cell]","Number of neurite propagated cells ([1]; 24 hrs, 10 ng/ml)","Number of neurites ± S.E. ([1]; 24 hrs, 10 ng/ml) [number/cell]","Rate of neurite propagation (%) ([1]; 24 hrs, 10 ng/ml)","Total number of cells ([1]; 24 hrs, 10 ng/ml)","Length of neurite ± S.E. ([1]; 24 hrs, 100 ng/ml) [μm/cell]","Number of neurite propagated cells ([1]; 24 hrs, 100 ng/ml)","Number of neurites ± S.E. ([1]; 24 hrs, 100 ng/ml) [number/cell]","Rate of neurite propagation (%) ([1]; 24 hrs, 100 ng/ml)","Total number of cells ([1]; 24 hrs, 100 ng/ml)","Length of neurite ± S.E. ([1]; 24 hrs, 1 μg/ml) [μm/cell]","Number of neurite propagated cells ([1]; 24 hrs, 1 μg/ml)","Number of neurites ± S.E. ([1]; 24 hrs, 1 μg/ml) [number/cell]","Rate of neurite propagation (%) ([1]; 24 hrs, 1 μg/ml)","Total number of cells ([1]; 24 hrs, 1 μg/ml)",minimal effective concentration [1] [ng/mL],"Length of neurite ± S.E. ([1]; 48 hrs, 10 ng/ml) [μm/cell]","Number of neurite propagated cells ([1]; 48 hrs, 10 ng/ml)","Number of neurites ± S.E. ([1]; 48 hrs, 10 ng/ml) [number/cell]",other results
"CC(=O)NC1C(O)CC(OC2CCC3(C)C(=CCC4C3CCC3(C)C(C(C)CCCC(C)C)CCC43)C2)(C(=O)O)OC1C(O)C(O)CO [Compound (5), sodium 5-acetoamide-2-O-(5-cholesten-3-beta-yl)-3,5-dideoxy-beta-D-glycero-D-galacto-2-nonulopyranosonate]",indicated activity,89.4 ± 4.23,124,1.3 ± 0.05,34.3,361,116.4 ± 5.59,156,1.2 ± 0.03,40.6,384,130.8 ± 5.16,213,1.2 ± 0.04,53.8,396,100,110.6 ± 4.93,226,1.2 ± 0.04,"Rate of neurite propagation (%) ([1]; 48 hrs, 10 ng/ml): 47.9%; Total number of cells ([1]; 48 hrs, 10 ng/ml): 472; Length of neurite ± S.E. ([1]; 48 hrs, 100 ng/ml): 135.1 ± 6.23 μm/cell; Number of neurite propagated cells ([1]; 48 hrs, 100 ng/ml): 212; Number of neurites ± S.E. ([1]; 48 hrs, 100 ng/ml): 1.3 ± 0.04 number/cell; Rate of neurite propagation (%) ([1]; 48 hrs, 100 ng/ml): 50.2%; Total number of cells ([1]; 48 hrs, 100 ng/ml): 422; Length of neurite ± S.E. ([1]; 48 hrs, 1 μg/ml): 138.9 ± 5.39 μm/cell; Number of neurite propagated cells ([1]; 48 hrs, 1 μg/ml): 252; Number of neurites ± S.E. ([1]; 48 hrs, 1 μg/ml): 1.2 ± 0.03 number/cell; Rate of neurite propagation (%) ([1]; 48 hrs, 1 μg/ml): 55.5%; Total number of cells ([1]; 48 hrs, 1 μg/ml): 454; growth / propagation of neurites (in words) [1]: strong activity for the propagation of the neurites; activity relative to GMl (times as high) [1]: 42 times; activity relative to GQlb (times as high) [1]: 27 times; LD50 (ddy male mice): 291 mg/kg"
"CC(=O)NC1C(O)CC(OC2CCC3(C)C(=CCC4C3CCC3(C)C(C(C)CCCC(C)C)CCC43)C2)(C(=O)O)OC1C(O)C(O)CO [Compound (4), sodium 5-acetoamide-2-O-(5-cholesten-3-yl)-3,5-dideoxy-alpha-D-glycero-D-galacto-2-nonulopyranosonate]",indicated activity,92.4 ± 5.31,131,1.2 ± 0.04,31.5,416,96.7 ± 4.12,177,1.2 ± 0.03,41.5,427,130.4 ± 6.12,190,1.2 ± 0.03,50.9,373,10,121.9 ± 5.18,219,1.2 ± 0.03,"Rate of neurite propagation (%) ([1]; 48 hrs, 10 ng/ml): 46.9%; Total number of cells ([1]; 48 hrs, 10 ng/ml): 467; Length of neurite ± S.E. ([1]; 48 hrs, 100 ng/ml): 126.0 ± 6.10 μm/cell; Number of neurite propagated cells ([1]; 48 hrs, 100 ng/ml): 193; Number of neurites ± S.E. ([1]; 48 hrs, 100 ng/ml): 1.2 ± 0.04 number/cell; Rate of neurite propagation (%) ([1]; 48 hrs, 100 ng/ml): 47.8%; Total number of cells ([1]; 48 hrs, 100 ng/ml): 404; Length of neurite ± S.E. ([1]; 48 hrs, 1 μg/ml): 156.3 ± 8.32 μm/cell; Number of neurite propagated cells ([1]; 48 hrs, 1 μg/ml): 182; Number of neurites ± S.E. ([1]; 48 hrs, 1 μg/ml): 1.2 ± 0.04 number/cell; Rate of neurite propagation (%) ([1]; 48 hrs, 1 μg/ml): 49.3%; Total number of cells ([1]; 48 hrs, 1 μg/ml): 369; growth / propagation of neurites (in words) [1]: strong activity for the propagation of the neurites; activity relative to GMl (times as high) [1]: 420 times; activity relative to GQlb (times as high) [1]: 270 times; LD50 (ddy male mice): 93 mg/kg"
